ChEMBL document CHEMBL4483862, “Open-source discovery of chemical leads for next-generation chemoprotective antimalarials” (2018)

System: Plasmodium berghei
Test: Luciferase/luciferin-expressing antifolate-resistant parasites were used to infect a culture of HepG2 cells that were pre-incubated with compounds. Infected hepatocytes emit light due to the luciferase reaction. Assay results are presented as the percent inhibition of light emission compared to control. […]
Assay type: functional
Conditions: sporozoite; for IC90: read-out: LUCIFERASE INFECTION ASSAY - IC90
[1] = read-out: LUCIFERASE INFECTION ASSAY - IC50

Row | SMILES | IC90 [µM] | IC50 [1] [µM] | also measured
1 | Cc1ccc(Sc2nc3ccccc3nc2NS(=O)(=O)c2ccc(F)cc2C)cc1 | > 10 | – | IC50 (HEPG2TOX_HILL_SLOPE 0.43, HEPG2TOX_R_SQUARED 0.741, read-out: LUCIFERASE INFECTION ASSAY - IC50): > 10 µM
2 | CC(C)c1ccc(C(=O)N2CC(C(=O)N3CCOCC3)Oc3ccccc32)cc1 (stereo unspecified) | > 10 | > 10 | –
3 | Fc1ccc(NC(=S)NC2CC3CC2C2C=CCC32)cc1 (stereo unspecified) | 8.13 | – | IC50 (PBLUC_HILL_SLOPE 3.22, PBLUC_R_SQUARED 0.522, read-out: LUCIFERASE INFECTION ASSAY - IC50): 4.11 µM
4 | COc1ccc(/C=C/C(=O)Nc2ccc(C34CC5CC(CC(O)(C5)C3)C4)cc2)cc1OC | 4.89 | – | IC50 (HEPG2TOX_HILL_SLOPE 4.85, 2.53, HEPG2TOX_R_SQUARED 0.902, 0.960, PBLUC_HILL_SLOPE 2.45, PBLUC_R_SQUARED 0.68, read-out: LUCIFERASE INFECTION ASSAY - IC50): 1.99 µM
5 | NC(=O)c1ccsc1NC(=O)c1cc(-c2ccccc2)nn1-c1ccccc1 | 3.68 | – | IC50 (PBLUC_HILL_SLOPE 12.3, PBLUC_R_SQUARED 0.697, read-out: LUCIFERASE INFECTION ASSAY - IC50): 3.08 µM
6 | CSC1=C(C#N)C(=O)NC(c2c(Cl)cccc2Cl)S1 (stereo unspecified) | > 9.96 | – | IC50 (FFLUC_HILL_SLOPE 9.34, FFLUC_R_SQUARED 0.0497, read-out: LUCIFERASE INFECTION ASSAY - IC50): > 9.96 µM
7 | O=C(CCn1ccnn1)Nc1ccc(Sc2ccc(Br)cc2)cc1 | > 10 | – | IC50 (HEPG2TOX_HILL_SLOPE 6.85, HEPG2TOX_R_SQUARED 0.647, PBLUC_HILL_SLOPE 1.94, PBLUC_R_SQUARED 0.683, read-out: LUCIFERASE INFECTION ASSAY - IC50): 6.08 µM
8 | Cn1cccc1C(=O)NC(=O)COC(=O)CCNC(=O)c1ccc([N+](=O)[O-])cc1 | > 10 | > 10 | –
9 | Cc1cccc(CNc2nc3cnc(Nc4cccc(O)c4)cc3n2C)c1 | > 10 | – | IC50 (FFLUC_HILL_SLOPE 6.96, FFLUC_R_SQUARED 0.0526, HEPG2TOX_HILL_SLOPE 13.6, HEPG2TOX_R_SQUARED 0.973, PBLUC_HILL_SLOPE 10.5, PBLUC_R_SQUARED 0.188, read-out: LUCIFERASE INFECTION ASSAY - IC50): 8.85 µM
10 | Cc1cc(-c2cnc(N)c(-c3cccc(C(F)(F)F)c3)c2)cc(C)c1O | 4.83 | – | IC50 (HEPG2TOX_HILL_SLOPE 1.44, HEPG2TOX_R_SQUARED 0.945, PBLUC_HILL_SLOPE 1.93, PBLUC_R_SQUARED 0.583, read-out: LUCIFERASE INFECTION ASSAY - IC50): 1.55 µM
11 | O=C(CN1CCN(C(C(=O)Nc2cc(C(F)(F)F)ccc2Cl)c2ccccc2)CC1)NC1CC1 (stereo unspecified) | > 10 | 9.79 | –
12 | CC(C)CNC(=O)NC(=O)COC(=O)c1c2c(nc3ccccc13)CCCCC2 | 7.96 | 3.9 | –
13 | Cc1c(C)n(CCCN(C)C)c2ncn3nc(-c4ccc(N(C)C)cc4)nc3c12 | > 8.43 | – | IC50 (PBLUC_HILL_SLOPE 1.37, PBLUC_R_SQUARED 0.575, read-out: LUCIFERASE INFECTION ASSAY - IC50): 3.73 µM
14 | Cc1noc2nc(C3CC3)cc(C(=O)N3CCC(C(N)=O)CC3)c12 | > 10 | > 10 | –
15 | Cn1c(-c2ccccc2)c(C(Nc2ccccn2)c2ccccc2O)c2ccccc21 (stereo unspecified) | > 10 | – | IC50 (FFLUC_HILL_SLOPE 22.7, FFLUC_R_SQUARED 0.0514, read-out: LUCIFERASE INFECTION ASSAY - IC50): > 10 µM
16 | CC(C)(C(=O)Nc1ccon1)n1cc(-c2ccc(OCCN3CCCC3)cc2)cn1 | > 10 | > 10 | –
17 | Cc1ccc(-n2c(C)cc(C(=O)CSc3n[nH]c(=O)n3C3CC3)c2C)cc1C | > 10 | > 10 | –

Row | SMILES | IC90 [µM] | IC50 [1] [µM] | also measured
18 | CC(=N)C(C#N)c1csc(Nc2cc(C)cc(C)c2)n1 (stereo unspecified) | > 10 | – | IC50 (FFLUC_HILL_SLOPE 2.53, FFLUC_R_SQUARED 0.471, read-out: LUCIFERASE INFECTION ASSAY - IC50): > 10 µM
19 | Oc1ccc(Br)c(/C=C/c2ccc3cccc(O)c3n2)c1 | > 9.64 | – | IC50 (HEPG2TOX_HILL_SLOPE 7.26, HEPG2TOX_R_SQUARED 0.426, read-out: LUCIFERASE INFECTION ASSAY - IC50): > 9.64 µM
20 | CCN1CCN(c2nc(CC(C)C)c3c(c2C#N)CCCC3)CC1 | > 10.1 | > 10.1 | –
21 | CCC(C)(C)c1ccc(Oc2ccc(NC(=O)CSc3cccc[n+]3[O-])cc2)cc1 | > 10 | > 10 | –
22 | O=C(c1c[nH]c2ccccc12)N1CCN(c2nsc3ccccc23)CC1 | 3.82 | – | IC50 (HEPG2TOX_HILL_SLOPE 9.85, HEPG2TOX_R_SQUARED 0.824, PBLUC_HILL_SLOPE 13.5, PBLUC_R_SQUARED 0.79, read-out: LUCIFERASE INFECTION ASSAY - IC50): 3.25 µM
23 | Nc1nc2c(c(C(F)(F)F)n1)CCc1ccccc1-2 | > 12.4 | > 12.4 | –
24 | O=C(Nc1nonc1-c1cccs1)c1sc2ccccc2c1Cl | 3.36 | – | IC50 (HEPG2TOX_HILL_SLOPE 3.76, HEPG2TOX_R_SQUARED 0.735, PBLUC_HILL_SLOPE 21.7, PBLUC_R_SQUARED 0.795, read-out: LUCIFERASE INFECTION ASSAY - IC50): 3.04 µM
25 | COc1ccc(-c2csc3ncnc(NCc4ccc(-n5ccnc5)nc4)c23)cc1 | 10 | – | IC50 (HEPG2TOX_HILL_SLOPE 2.62, HEPG2TOX_R_SQUARED 0.957, PBLUC_HILL_SLOPE 10.9, PBLUC_R_SQUARED 0.671, read-out: LUCIFERASE INFECTION ASSAY - IC50): 8.17 µM
26 | C/C=C/c1ccc(OCC(O)Cn2c(=O)c(-c3ccccc3)[n+]([O-])c3ccccc32)c(OC)c1 (stereo unspecified) | 9.19 | 1.21 | –
27 | CC(NC(=O)NC(=O)c1ccccc1)C1CC2CCC1C2 (stereo unspecified) | > 10 | > 10 | –
28 | Cc1cc2ncc(-c3ccnc(SCC(=O)c4ccc(Cl)cc4)n3)c(C)n2n1 | > 8.05 | > 8.05 | –
29 | NS(=O)(=O)c1ccc(CCNc2nn3c(-c4ccc(F)c(Cl)c4)cnc3s2)cc1 | > 7.3 | – | IC50 (FFLUC_HILL_SLOPE 96, FFLUC_R_SQUARED 0.344, HEPG2TOX_HILL_SLOPE 2.59, HEPG2TOX_R_SQUARED 0.44, read-out: LUCIFERASE INFECTION ASSAY - IC50): > 7.3 µM
30 | COc1ccc(-c2csc(NC(=O)c3ccc(Cl)c(S(=O)(=O)N4CCc5ccccc54)c3)n2)cc1OC | > 10 | – | IC50 (FFLUC_HILL_SLOPE 2.97, FFLUC_R_SQUARED 0.574, read-out: LUCIFERASE INFECTION ASSAY - IC50): > 10 µM
31 | CNc1nc2cnc(Nc3ccc(C(C)C)cc3)cc2n1-c1cc(OC)c(OC)c(OC)c1 | > 10 | – | IC50 (HEPG2TOX_HILL_SLOPE 3.92, HEPG2TOX_R_SQUARED 0.032, PBLUC_HILL_SLOPE 0.581, PBLUC_R_SQUARED 0.333, read-out: LUCIFERASE INFECTION ASSAY - IC50): > 10 µM
32 | Cc1c(S(=O)(=O)c2ccc(Cl)cc2)csc1S(=O)(=O)N1CCOCC1 | > 7.82 | > 7.82 | –
33 | CC(=O)Nc1ccc(Nc2cc3c(cn2)cc(-c2cccnc2)n3Cc2ccccc2)cc1 | 7.61 | – | IC50 (PBLUC_HILL_SLOPE 3.49, PBLUC_R_SQUARED 0.716, read-out: LUCIFERASE INFECTION ASSAY - IC50): 4.06 µM
